Data on six molecules can be found in patent publication US12691121B2, “Treatment of pulmonary arterial hypertension” (IMPERIAL COLLEGE INNOVATIONS LIMITED, priority 2020, dated 2026).

Where two headings read alike, the source gives them in different places.

The test system of data set [1] is human pulmonary microvascular endothelial cells (HPMEC). Kind of data set: DMOG-induced apoptosis in HPMEC. The data set is classed as cell-based. From the text:
The effects of various TSPO ligands on HPMEC under DMOG (a permeable prolyl-4-hydroxylase inhibitor which upregulates hypoxia-inducible factor and causes apoptosis) stimulation were investigated.

Data set [2] deals with MCT rat. The data set can be described thus: MCT rat PH model: RV immunofluorescence (WGA cardiomyocyte size, CD31 micro-vessels). The data set is classed as in vivo. From the text: Bar charts illustrating the quantitative data from immunofluorescence staining. ***p<0.001.
Immunofluorescence staining was used to examine the RV structural changes. The cardiomyocyte size was quantified by wheat germ agglutinin (WGA) and the number of micro-vessels by CD31 at RV insertion point.

Data set [3] concerns HPAEC. Kind of data set: ROS production in TNF-α stimulated HPAEC (CellROX Green). Format: cell-based, human. As to conditions: 10 nM and 50 nM; P<0.001; levels similar to TNF-α untreated control. How it is done: (§1) Mitochondrial membrane potential was determined using 20 nM Tetramethylrhodamine, Ethyl Ester, Perchlorate (TMRE; Life technologies, T669). ROS production was detected using 5 uM CellROX Green (Life technologies, C10444). 1 ug/mL Hoechst 33342 (Life technologies, H1399) was added for nucleus staining. Images were obtained with a Zeiss Axio Observer inverted widefield microscope. […] In addition, XBD173 signifantly (P<0.001) increased the mitochondrial membrane potentials following TNF-α stimulation, with the mitochondrial membrane potentials with XBD173 treatment recovering to similar levels to those seen for the TNF-α untreated control.

In data set [4] the target is human TSPO (Homo sapiens, UniProt P30536, T147A). The conditions noted are these: human subjects with high-affinity binding of their TSPO; read-out: mean Kd, high affinity binders; cited from earlier work.
Data set [5] has as its target human TSPO (Homo sapiens, UniProt P30536). The conditions noted are these: cited from earlier work.
Data set [6] concerns HPAEC. The data set can be described thus: Mitochondrial membrane potential in TNF-α stimulated HPAEC (TMRE). Format: cell-based, human. As to conditions: 10 nM and 50 nM; P<0.001; recovering to levels similar to TNF-α untreated control. As for the experimental part: as §1
A further data set relates to SuHx rat. Kind of data set: SuHx rat model: PAP, RV hypertrophy, systolic blood pressure. The data set is classed as in vivo. As to conditions: SuHx rats, 2 mg/kg twice a day for two weeks.
The test system of data set [7] is MCT rat. The data set can be described thus: MCT rat PH model: MRI of RV structure and function. The data set is classed as in vivo.
The subject of the next data set is HPAECs. The data set can be described thus: TNF-α stimulated HPAEC activation: E-selectin ELISA and cytokine array. The data set is classed as cell-based, human. The conditions noted are these: 10 nM and 50 nM. As for the experimental part:
HPAECs were pre-treated with XBD173 (10 nM and 50 nM) for 24 hours before TNF-α (10 ng/ml) stimulation for 8 hours. At the end of the experiment, cell numbers were counted and cell culture supernatants collected (n=4 per group, control, TNF-α, TNF-α with XBD 10 nM and 50 nM treatments) for cytokine assay using the proteome profiler human cytokine array kit (R&D systems, ARY005B) and E-selectin ELISA assay. […] Further, XBD173 observably attenuated release of multiple cytokines and chemokines (CXCL-10, RANTES, IL-6, IL-21, IL-18, CXCL11, G-CSF and CXCL12) from HPAEC in response to TNF-α stimulation.
(In general: ELISA stands for enzyme-linked immunosorbent assay.)

Data set [8] deals with MCT rat. Kind of data set: MCT rat PH model: pulmonary arterial pressure, RVSP, RV hypertrophy, systemic blood pressure. The data set is classed as in vivo. As for the experimental part: Modulation of TSPO by XBD-173 was assessed in MCT rats. […] Heart and lung glucose metabolism were also assessed by FDG-PET imaging. […] This attenuation was dose-dependent manner. […] (data not shown).

Data set [9] deals with MCT rat. Kind of data set: MCT rat PH model: pulmonary vascular remodelling and CD68+ macrophage infiltration (histology). The data set is classed as in vivo. As for the experimental part: Modulation of TSPO by XBD-173 was assessed in MCT rats. […] Heart and lung glucose metabolism were also assessed by FDG-PET imaging.
In the next data set the target is T1, TSPO (Rattus norvegicus, UniProt P16257).
T1 construct: from tissue; host or cells: lungs and right ventricle of living control and monocrotaline-treated rats (in vivo PET)
Kind of data set: 11C-PBR28 PET imaging, ligand specificity tested by XBD-173 pre-treatment. As to conditions: rats treated with XBD-173 prior to PET imaging. Format: in vivo. How it is done: PET imaging was performed in healthy control and MCT 4 weeks rats (60 mg/kg subcutaneous injection). The uptake of TSPO PET tracer, ^11C-PBR28, was measured in the lungs and RV.

Data set [10] relates to Human pulmonary artery smooth muscle cells (PASMCs). Kind of data set: PDGF- and hypoxia-stimulated proliferation of PASMCs. The data set is classed as cell-based.
Where [11] appears, read: 2 mg/Kg once and twice a day, 2-4 weeks.

Chain of human TSPO (Homo sapiens, UniProt P30536, T147A) (P30536 2-169 T147A): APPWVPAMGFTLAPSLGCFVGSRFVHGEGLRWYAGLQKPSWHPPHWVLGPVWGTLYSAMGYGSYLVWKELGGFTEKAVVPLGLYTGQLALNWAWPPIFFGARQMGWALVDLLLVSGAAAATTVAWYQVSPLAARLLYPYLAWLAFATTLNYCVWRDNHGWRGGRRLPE

In the case of `CN1C(=O)CN=C(c2ccc(Cl)cc2)c2cc(Cl)ccc21` [Ro 5-4864], in [1] (FIG. 12E, 10 nM), the “DMOG-induced apoptotic effects in HPMECs” value was “reversed”.
With `CC(=O)N(Cc1ccccc1O[11CH3])c1cnccc1Oc1ccccc1` [PBR28], the “DMOG-induced apoptotic effects in HPMECs” value in [1] (FIG. 12D, 5 nM) is recorded as “reversed”.
Take `CCC(C)N(C)C(=O)c1cc2ccccc2c(-c2ccccc2Cl)n1` (stereo not drawn) [PK95111]: the “DMOG-induced apoptotic effects in HPMECs” value in data set [1] (FIG. 12B, 3 nM, 30 nM and 300 nM) was “reversed”.
Regarding `CCOC(=O)C1=C[C@]2(CC)CCCN3CCc4c(n1c1ccccc41)[C@@H]32` [Vinpocetine], the “DMOG-induced apoptotic effects in HPMECs” value in data set [1] (FIG. 12C, 800 nM) is given as “reversed”.
For `CCNC1=Nc2ccc(Cl)cc2C(C)(c2ccccc2)O1` (stereo not drawn) [Etifoxine], the “DMOG-induced apoptotic effects in HPMECs” value in data set [1] (FIG. 12F, 10 uM) is “reversed”.
Regarding `CCN(Cc1ccccc1)C(=O)Cn1c(=O)n(C)c2cnc(-c3ccccc3)nc21` [XBD-173, N-Ethyl-7,8-dihydro-7-methyl-8-oxo-2-phenyl-N-(phenylmethyl)-9H-purine-9-acetamide], the “RV cardiomyocyte hypertrophy (myocyte size, WGA)” value with MCT rat [2] (MCT rat RV) was “attenuated”. The “RV capillary density (CD31 micro-vessels)” value in the data set on MCT rat [2] (MCT rat RV insertion point) is listed as “increased”. In the data set on HPAEC [3], the “ROS production following TNF-α stimulation” value is “reduced”. At human TSPO [4], the Kd (as a rule, the constant that tells how readily two partners part at equilibrium) is ~2.5 nM. Also, the equilibrium dissociation constant (Kd) at human TSPO [5] (human subjects with both high- and low-affinity binding sites, read-out: mean Kd, mixed affinity binders) was ~11 nM. The equilibrium dissociation constant (Kd) on human TSPO [5] (human subjects with low-affinity binding of their TSPO, read-out: mean Kd, low affinity binders) was ~30 nM. Also, in the data set with HPAEC [6], the “mitochondrial membrane potentials following TNF-α stimulation” value was “increased”. Further, in the data set on SuHx rat, the RV hypertrophy result is reported as “significant decrease”, the “pulmonary arterial pressure (PAP)” value is “significant decrease” and the systemic blood pressure result is recorded as “no significant effect”. Moreover, in the data set on MCT rat [7], the “RV cardiac index (RVCI)” value is listed as “restoring”; the “RV dilation (RV end diastolic volume index, RVEDVI)” value is listed as “significantly reduced”; the “RV ejection fraction (RVEF)” value is recorded as “restoring”; the “RV hypertrophy as RV mass index (RVMI)” value is reported as “reduced”. For the same molecule, in the data set on MCT rat [7], the “RV hypertrophy as ventricular mass index (VMI)” value is listed as “reduced” and the “ventricular-vascular coupling (Ees/Ea)” value is listed as “restoring”. In addition, the “activation of HPAECs by TNF-α (E-selectin expression)” value in the data set with HPAECs (24 hours pre-treatment, TNF-α 10 ng/ml 8 hours, P<0.05) is reported as “reduced”. In addition, in the data set with HPAECs (TNF-α stimulation), the CXCL11 release entry is “attenuated”, the CXCL12 release entry is “attenuated”, the CXCL-10 release result was “attenuated” and the G-CSF release result is listed as “attenuated”. For the same molecule, in the data set with HPAECs (TNF-α stimulation), the IL-6 release result is recorded as “attenuated”, the IL-18 release entry was “attenuated”, the IL-21 release entry was “attenuated” and the RANTES release entry was “attenuated”. Also, the “DMOG-induced apoptotic effects in HPMECs” value in data set [1] (Example 4, FIG. 11) is recorded as “reversed”. Also, the “DMOG-induced apoptotic effects in HPMECs” value in [1] (FIG. 12A, 10 nM, 50 nM and 100 nM) is given as “reversed”. In addition, in the data set with MCT rat [8] (setting [11]), the “RV/body weight (RV/BW)” value is recorded as “attenuated” and the “RVSP (RV catheterisation)” value was “attenuated”. Further, the “RVH (RV/LV+sp ratio, dissected heart tissue)” value in the data set with MCT rat [8] (2 mg/Kg once and twice a day, 2-4 weeks, vs 57.30 untreated MCT) was 40.30. Besides, the “pulmonary arterial pressure (PAP)” value with MCT rat [8] (2 mg/Kg once and twice a day, treatment from 2 weeks to 4 weeks, vs 45.37 untreated MCT) was determined as 27.23 mmHg. Further, in the data set on MCT rat [8] (data not shown), the systemic blood pressure entry is “no significant effect”. Moreover, in the data set with MCT rat [9] (MCT rat lung), the “inflammatory cell (CD68, macrophage) infiltration” value is reported as “attenuated”. Besides, in the data set with MCT rat [9] (MCT rat, 2 mg/Kg once and twice a day, 2-4 weeks, vs 75.24 untreated MCT), the “pulmonary vascular remodelling (% of muscularised vessels)” value is 53.57%. Further, the “PBR28 lung signals (11C-PBR28 PET)” value on TSPO was “blocked”. The “PDGF-stimulated proliferation of PASMCs” value in data set [10] (PDGF stimulus) is “attenuated”. The “hypoxia-stimulated proliferation of PASMCs” value in data set [10] (hypoxia stimulus (O2=2%)) was “attenuated”.
